Source: patent US20250368614A1, “COMPOUNDS AND METHODS FOR YAP/TEAD MODULATION AND INDICATIONS THEREFOR” (OPNA BIO SA, priority 2023, published 2025)

Tested on: TEAD-dependent transcription (12XGTIIC TEAD response element luciferase reporter) in MSTO-211H cells
Assay: TEAD-dependent transcription cell-based luciferase reporter assay in MSTO-211H+12XGTIIC cells
Details: Homo sapiens; MSTO-211H+12XGTIIC reporter cells, 24 hours compound incubation, luminescence normalized to cell viability signal, geometric mean; read-out: MSTO-211H GMean IC50 (uM) Cell Assay Reporter Cell Variant: TEAD
From the text: Determine Inhibitor Activity Against TEAD-Dependent Transcription in a Cell-Based Reporter Assay
The human mesothelioma cell line MSTO-211H was stably transfected with a pGL4.21 plasmid containing a synthetic promoter with 12 copies of the GTIIC TEAD response element that drives the expression of a luciferase reporter gene^1 using Lipofectamine transfection reagent (Thermo Fisher). Transfected cells were selected using puromycin and single cell clones expressing this construct (referred to as MSTO-211H+12XGTIIC) were generated by limiting dilution. MSTO-211H cells was characterized by genetic alterations in key components of the Hippo pathway^2, resulting in up-regulation of YAP/TEAD-mediated transcription. […] To evaluate TEAD inhibitors, the MSTO-211H+12XGTIIC cell line was seeded in a 96-well plate in 50 μL of culture media at 1×10^4 cells per well and incubated at 37° C. overnight. Serial dilutions of compounds (in total volume of 50 μL of culture media) were added to the cells and incubated at 37° C. for 24 hours. Each plate included cells treated with DMSO as high controls and cells treated with 20 μM of the reference compound K-975 (a known TEAD inhibitor^3) as low controls. Cell viability was assayed by the addition of 25 μL of CellTiter-Fluor reagent (Promega) followed by a 30-minute incubation at 37° C. and quantification of the fluorescence signal (Ex400/Em505). Subsequently, luciferase expression was assayed by the addition of 25 μL of ONE-Glo reagent (Promega) followed by a 10-minute incubation at room temperature and quantification of the luminescence signal. The luminescence signal was normalized to the fluorescence signal to correct for any loss in cell viability over the 24-hour compound incubation period. The percentage of inhibition of normalized luminescence signal, indicative of compound-mediated inhibition of TEAD-dependent transcription, at individual compound concentrations relative to high and low controls was calculated. The data were analyzed by using nonlinear regression to generate IC50 values for individual compounds.

Structure (SMILES) | IC50
O=C1NC(=O)C(CC(=O)N2CCc3c(cccc3Nc3ccc(C(F)(F)F)cc3F)C2)N1 (stereo not drawn) [Compound O-0196, 5-(2-(5-((2-fluoro-4-(trifluoromethyl)phenyl)amino)-3,4-dihydroisoquinolin-2(1H)-yl)-2-oxoethyl)imidazolidine-2,4-dione] | 0.001 to 10 µM
O=C1NS(=O)(=O)c2cc(C(=O)N3CCc4c(cccc4Nc4ccc(C(F)(F)F)cc4)C3)ccc21 [Compound O-0199, 6-(5-((4-(trifluoromethyl)phenyl)amino)-1,2,3,4-tetrahydroisoquinoline-2-carbonyl)benzo[d]isothiazol-3(2H)-one 1,1-dioxide] | 0.001 to 10 µM
CN(c1ccc(C(F)(F)F)nc1)c1cccc2c1CCN(C(=O)CCS(=O)(=O)C(F)(F)F)C2 [Compound O-0023, 1-(5-(methyl(6-(trifluoromethyl)pyridin-3-yl)amino)-3,4-dihydroisoquinolin-2(1H)-yl)-3-((trifluoromethyl)sulfonyl)propan-1-one] | 0.001 to 10 µM
Nc1cncc(C(=O)N2CCc3c(cccc3Nc3ccc(C(F)(F)F)cc3)C2)c1 [Compound O-0031, (5-aminopyridin-3-yl)(5-((4-(trifluoromethyl)phenyl)amino)-3,4-dihydroisoquinolin-2(1H)-yl)methanone] | 0.001 to 10 µM
Nc1cccc(C(=O)N2CCc3c(cccc3Nc3ccc(C(F)(F)F)cc3)C2)n1 [Compound O-0029, (6-aminopyridin-2-yl)(5-((4-(trifluoromethyl)phenyl)amino)-3,4-dihydroisoquinolin-2(1H)-yl)methanone] | 10 to 100 µM
O=C(NC1CC1)N1CCC(C(=O)N2CCc3c(cccc3Nc3ccc(C(F)(F)F)cc3F)C2)C1 (stereo not drawn) [Compound O-0094, N-cyclopropyl-3-(5-((2-fluoro-4-(trifluoromethyl)phenyl)amino)-1,2,3,4-tetrahydroisoquinoline-2-carbonyl)pyrrolidine-1-carboxamide] | 0.001 to 10 µM
Nc1ccnc(C(=O)N2CCc3c(cccc3Nc3ccc(C(F)(F)F)cc3)C2)c1 [Compound O-0030, (4-aminopyridin-2-yl)(5-((4-(trifluoromethyl)phenyl)amino)-3,4-dihydroisoquinolin-2(1H)-yl)methanone] | 0.001 to 10 µM
O=C(Nc1ccccn1)N1CCC(C(=O)N2CCc3c(cccc3Nc3ccc(C(F)(F)F)cc3F)C2)C1 (stereo not drawn) [Compound O-0095, 3-(5-((2-fluoro-4-(trifluoromethyl)phenyl)amino)-1,2,3,4-tetrahydroisoquinoline-2-carbonyl)-N-(pyridin-2-yl)pyrrolidine-1-carboxamide] | 0.001 to 10 µM
C=CC(=O)Nc1nccc(C(=O)N2CCc3c(cccc3Nc3ccc(C(F)(F)F)cc3)C2)n1 [Compound O-0039, N-(4-(5-((4-(trifluoromethyl)phenyl)amino)-1,2,3,4-tetrahydroisoquinoline-2-carbonyl)pyrimidin-2-yl)acrylamide] | 0.001 to 10 µM
O=C(CCc1cnc[nH]1)N1CCc2c(cccc2Nc2ccc(C(F)(F)F)cc2)C1 [Compound O-0054, 3-(1H-imidazol-5-yl)-1-(5-((4-(trifluoromethyl)phenyl)amino)-3,4-dihydroisoquinolin-2(1H)-yl)propan-1-one] | 0.001 to 10 µM
Nc1nccc(C(=O)N2CCc3c(cccc3Nc3ccc(C(F)(F)F)cc3)C2)n1 [Compound O-0033, (2-aminopyrimidin-4-yl)(5-((4-(trifluoromethyl)phenyl)amino)-3,4-dihydroisoquinolin-2(1H)-yl)methanone] | 0.001 to 10 µM
Nc1cccc(C(=O)N2CCc3c(cccc3Nc3ccc(C(F)(F)F)cc3)C2)c1 [Compound O-0028, (3-aminophenyl)(5-((4-(trifluoromethyl)phenyl)amino)-3,4-dihydroisoquinolin-2(1H)-yl)methanone] | 10 to 100 µM
O=C(Cc1c[nH]cn1)N1CCc2c(cccc2Nc2ccc(C(F)(F)F)cc2)C1 [Compound O-0053, 2-(1H-imidazol-4-yl)-1-(5-((4-(trifluoromethyl)phenyl)amino)-3,4-dihydroisoquinolin-2(1H)-yl)ethan-1-one] | 0.001 to 10 µM
O=C(Cc1cn[nH]c1)N1CCc2c(cccc2Nc2ccc(C(F)(F)F)nc2)C1 [Compound O-0059, 2-(1H-pyrazol-4-yl)-1-(5-((6-(trifluoromethyl)pyridin-3-yl)amino)-3,4-dihydroisoquinolin-2(1H)-yl)ethan-1-one] | 0.001 to 10 µM
O=C(CCS(=O)(=O)C(F)(F)F)N1CCc2c(cccc2Nc2ccc(C(F)(F)F)cn2)C1 [Compound O-0021, 1-(5-((5-(trifluoromethyl)pyridin-2-yl)amino)-3,4-dihydroisoquinolin-2(1H)-yl)-3-((trifluoromethyl)sulfonyl)propan-1-one] | 0.001 to 10 µM
O=C(c1cccc2cc[nH]c12)N1CCc2c(cccc2Nc2ccc(C(F)(F)F)nc2)C1 [Compound O-0060, (1H-indol-7-yl)(5-((6-(trifluoromethyl)pyridin-3-yl)amino)-3,4-dihydroisoquinolin-2(1H)-yl)methanone] | 0.001 to 10 µM
CN(c1ccc(C(F)(F)F)cc1)c1cccc2c1CCN(C(=O)c1cccc(N)c1)C2 [Compound O-0013, (3-aminophenyl)(5-(methyl(4-(trifluoromethyl)phenyl)amino)-3,4-dihydroisoquinolin-2(1H)-yl)methanone] | 0.001 to 10 µM
O=C(Cc1cncs1)N1CCc2c(cccc2Nc2ccc(C(F)(F)F)cc2)C1 [Compound O-0003, 2-(thiazol-5-yl)-1-(5-((4-(trifluoromethyl)phenyl)amino)-3,4-dihydroisoquinolin-2(1H)-yl)ethan-1-one] | 0.001 to 10 µM
NC(=O)NCCC(=O)N1CCc2c(cccc2Nc2ccc(C(F)(F)F)c(F)c2)C1 [Compound O-0190, 1-(3-(5-((3-fluoro-4-(trifluoromethyl)phenyl)amino)-3,4-dihydroisoquinolin-2(1H)-yl)-3-oxopropyl)urea] | 0.001 to 10 µM
CN1CCN(CCCS(=O)(=O)N2CCc3c(cccc3Nc3ccc(C(F)(F)F)cc3)C2)CC1 [Compound O-0198, 2-((3-(4-methylpiperazin-1-yl)propyl)sulfonyl)-N-(4-(trifluoromethyl)phenyl)-1,2,3,4-tetrahydroisoquinolin-5-amine] | 0.001 to 10 µM
NC(=O)NCCC(=O)N1CCc2c(cccc2Nc2ccc(C(F)(F)F)cc2)C1 [Compound O-0056, 1-(3-oxo-3-(5-((4-(trifluoromethyl)phenyl)amino)-3,4-dihydroisoquinolin-2(1H)-yl)propyl)urea] | 0.001 to 10 µM
C=CC(=O)Nc1cccc(C(=O)N2CCc3c(cccc3Nc3ccc(C(F)(F)F)cc3)C2)c1 [Compound O-0034, N-(3-(5-((4-(trifluoromethyl)phenyl)amino)-1,2,3,4-tetrahydroisoquinoline-2-carbonyl)phenyl)acrylamide] | 0.001 to 10 µM
Nc1nc(CC(=O)N2CCc3c(cccc3Nc3ccc(C(F)(F)F)cc3)C2)cs1 [Compound O-0007, 2-(2-aminothiazol-4-yl)-1-(5-((4-(trifluoromethyl)phenyl)amino)-3,4-dihydroisoquinolin-2(1H)-yl)ethan-1-one] | 0.001 to 10 µM
O=C(CCS(=O)(=O)C(F)(F)F)N1CCc2c(cccc2Nc2ccc(C(F)(F)F)cc2)C1 [Compound O-0010, 1-(5-((4-(trifluoromethyl)phenyl)amino)-3,4-dihydroisoquinolin-2(1H)-yl)-3-((trifluoromethyl)sulfonyl)propan-1-one] | 0.001 to 10 µM
O=C(NCCC(=O)N1CCc2c(cccc2Nc2ccc(C(F)(F)F)nc2)C1)Nc1ccccn1 [Compound O-0184, 1-(3-oxo-3-(5-((6-(trifluoromethyl)pyridin-3-yl)amino)-3,4-dihydroisoquinolin-2(1H)-yl)propyl)-3-(pyridin-2-yl)urea] | 0.001 to 10 µM
O=C(NCCC(=O)N1CCc2c(cccc2Nc2ccc(C(F)(F)F)cc2F)C1)NC1CC1 [Compound O-0193, 1-cyclopropyl-3-(3-(5-((2-fluoro-4-(trifluoromethyl)phenyl)amino)-3,4-dihydroisoquinolin-2(1H)-yl)-3-oxopropyl)urea] | 0.001 to 10 µM
Nc1cccc(CNC(=O)N2CCc3c(cccc3Nc3ccc(C(F)(F)F)cc3)C2)n1 [Compound O-0191, N-((6-aminopyridin-2-yl)methyl)-5-((4-(trifluoromethyl)phenyl)amino)-3,4-dihydroisoquinoline-2(1H)-carboxamide] | 0.001 to 10 µM
